Like-named read-outs stand apart in the source and are kept apart here.
How the values were obtained:
[1] = system: HMLER-shEcad (human breast cancer stem cell); test: cells
Outline: (§1)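 MTT viability after 72 h exposure to 0–100 μM compound (final DMSO 0.5% or 0%), 5×10^3 cells/well; HMLER lines and MCF-10A in MEGM, U2OS in DMEM with 10% FBS. A550 normalized to matching vehicle controls; IC50 interpolated from dose–response curves.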

[2] = system: HEK293T (human embryonic kidney cell); test: cells; conditions: 72 h
[3] = system: HMLER (human breast cancer bulk cell); test: cells; conditions: 72 h
Outline: as §1

[4] = system: MCF-10A (human breast epithelial cell); test: cells; conditions: 72 h
Outline: as §1

[5] = Tryptophan fluorescent binding assay, POPC vesicles; conditions: 50 μM peptide, PBS pH 7.4, lipid per peptide
Outline: (§2)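 Binding followed by tryptophan emission (300-450 nm, 280 nm excitation, 3 scans averaged) after 60 min incubation of 50 μM peptide with 0-5000 μM extruded 100 nm POPC or 3:1 POPC/POPG vesicles in PBS pH 7.4. Value: lipid-to-peptide ratio at half-maximal binding.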

[6] = Tryptophan fluorescent binding assay, 3POPC/1POPG vesicles; conditions: 50 μM peptide, PBS pH 7.4, lipid per peptide
Outline: as §2

[7] = ANTS/DPX liposome leakage assay, 3POPC/1POPG vesicles; type: biochemical; conditions: for Peptide Concentration-induced 50% ANTS/DPX leakage at pH 4.8, 3POPC/1POPG Vesicle / Peptide Concentration-induced 50% ANTS/DPX leakage at pH 7.4, 3POPC/1POPG Vesicle: 0.5 mM vesicles; for Peptide Concentration-induced 50% ANTS/DPX leakage at pH 4.8, 3POPC/1POPG Vesicle: pH 4.8, lipid per peptide; for Peptide Concentration-induced 50% ANTS/DPX leakage at pH 7.4, 3POPC/1POPG Vesicle: pH 7.4, lipid per peptide; for liposome leakage activity from anionic vesicle at pH 4.8 (in words): anionic versus zwitterionic vesicle
Outline: (§3)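 Peptide titrations (0–20 μM) were incubated 3 h with 0.5 mM ANTS/DPX-loaded 100 nm vesicles, either POPC alone or 3:1 POPC/POPG, at pH 7.4 or pH 4.8 in PBS. ANTS fluorescence (350/510 nm) normalized to Triton-lysed vesicles; 50%-leakage values given as lipid:peptide ratio.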

[8] = system: U2OS (human bone osteosarcoma); conditions: 72 h
Outline: as §1

[9] = ANTS/DPX liposome leakage assay, POPC vesicles; type: biochemical; conditions: 0.5 mM vesicles; for Peptide Concentration-induced 50% ANTS/DPX leakage at pH 4.8, POPC Vesicle: pH 4.8, lipid per peptide; for Peptide Concentration-induced 50% ANTS/DPX leakage at pH 7.4, POPC Vesicle: pH 7.4, lipid per peptide
Outline: as §3

[10] = system: HMLER-shEcad cells; test: HMLER-shEcad viability with co-incubated necroptosis/apoptosis inhibitors; type: cell-based, human; conditions: 20 μM necrostatin-1 or 5 μM z-VAD-FMK (FIG. 9C, 9D)
[11] = system: HMLER-shEcad mammospheres; test: Tumoursphere formation and viability assay (TOX8); type: cell-based, human

| Compound | IC50 ([1]; 72 h) | IC50 [2] | IC50 [3] | IC50 [4] | Lipid Concentration-induced 50% Peptide Binding, POPC Vesicle [5] | Lipid Concentration-induced 50% Peptide Binding, 3POPC/1POPG Vesicle [6] | Peptide Concentration-induced 50% ANTS/DPX leakage at pH 4.8, 3POPC/1POPG Vesicle [7] | Peptide Concentration-induced 50% ANTS/DPX leakage at pH 7.4, 3POPC/1POPG Vesicle [7] | liposome leakage activity from anionic vesicle at pH 4.8 (in words) [7] | IC50 [8] | Peptide Concentration-induced 50% ANTS/DPX leakage at pH 4.8, POPC Vesicle [9] | Peptide Concentration-induced 50% ANTS/DPX leakage at pH 7.4, POPC Vesicle [9] | cell viability on co-incubation with necrostatin or z-VAD-FMK [10] | decrease in activity, two-dimensional versus mammospheres ([11]; HMLER-shEcad 2D IC50 versus mammosphere IC50) | IC50 ([11]; Homo sapiens, read-out: IC50 in mammospheres) | IC50 ([1]; Homo sapiens, 72 h, read-out: IC50 HMLER-shEcad) | IC50 ([1]; Homo sapiens, read-out: IC50 against two-dimensional HMLER-shEcad) | IC50 ([2]; Homo sapiens, HEK-293T, read-out: IC50 HEK293T) | IC50 ([3]; Homo sapiens, read-out: IC50 HMLER) | IC50 ([4]; Homo sapiens, MCF-10A, read-out: IC50 MCF-10A) |
| --- | --- | --- | --- | --- | --- | --- | --- | --- | --- | --- | --- | --- | --- | --- | --- | --- | --- | --- | --- | --- |
| CC(C)C[C@H](NC(=O)CN)C(=O)N[C@@H](CC(C)C)C(=O)N[C@@H](CCC(=O)O)C(=O)N[C@@H](CC(C)C)C(=O)N[C@@H](CC(C)C)C(=O)N[C@@H](CCC(=O)O)C(=O)N[C@@H](CC(C)C)C(=O)N[C@@H](CC(C)C)C(=O)N[C@@H](CC(C)C)C(=O)N[C@@H](Cc1c[nH]cn1)C(=O)N[C@@H](C)C(=O)N[C@@H](C)C(=O)NCC(=O)N[C@@H](Cc1c[nH]c2ccccc12)C(N)=O [EEH] | 3.6 ± 0.85 µM | 12.9 ± 0.14 µM | 3.3 ± 0.14 µM | ≥ 100 µM | 0.50 L/P | 0.50 L/P | 168 L/P | 755 L/P | relatively higher liposome leakage activity | 19.6 ± 3.96 µM | 58 L/P | 738 L/P |  |  |  |  |  |  |  |  |
| CC(C)C[C@H](NC(=O)CN)C(=O)N[C@@H](CC(C)C)C(=O)N[C@@H](CCC(=O)O)C(=O)N[C@@H](CC(C)C)C(=O)N[C@@H](CC(C)C)C(=O)N[C@@H](CCC(=O)O)C(=O)N[C@@H](CC(C)C)C(=O)N[C@@H](CC(C)C)C(=O)N[C@@H](CC(C)C)C(=O)N[C@@H](CCCCN)C(=O)N[C@@H](C)C(=O)N[C@@H](C)C(=O)NCC(=O)N[C@@H](Cc1c[nH]c2ccccc12)C(N)=O [EEK] |  |  |  |  | 0.48 L/P | 4.50 L/P | 386 L/P | 657 L/P | relatively higher liposome leakage activity |  | 39 L/P | 730 L/P | cannot be improved |  |  |  |  |  |  |  |
| CC(C)C[C@H](NC(=O)CN)C(=O)N[C@@H](CC(C)C)C(=O)N[C@@H](CCC(=O)O)C(=O)N[C@@H](CC(C)C)C(=O)N[C@@H](CC(C)C)C(=O)N[C@@H](Cc1c[nH]cn1)C(=O)N[C@@H](CC(C)C)C(=O)N[C@@H](CC(C)C)C(=O)N[C@@H](CC(C)C)C(=O)N[C@@H](CCC(=O)O)C(=O)N[C@@H](C)C(=O)N[C@@H](C)C(=O)NCC(=O)N[C@@H](Cc1c[nH]c2ccccc12)C(N)=O [EHE] | 2.55 ± 0.07 µM | 13 µM | 3.9 ± 0.28 µM | ≥ 100 µM | 0.44 L/P | 0.44 L/P | 384 L/P | 706 L/P | relatively higher liposome leakage activity | 18.2 ± 1.06 µM | 75 L/P | 952 L/P |  |  |  |  |  |  |  |  |
| CC(C)C[C@H](NC(=O)CN)C(=O)N[C@@H](CC(C)C)C(=O)N[C@@H](CCCCN)C(=O)N[C@@H](CC(C)C)C(=O)N[C@@H](CC(C)C)C(=O)N[C@@H](CCC(=O)O)C(=O)N[C@@H](CC(C)C)C(=O)N[C@@H](CC(C)C)C(=O)N[C@@H](CC(C)C)C(=O)N[C@@H](CCC(=O)O)C(=O)N[C@@H](C)C(=O)N[C@@H](C)C(=O)NCC(=O)N[C@@H](Cc1c[nH]c2ccccc12)C(N)=O [KEE] | 2.05 ± 0.21 µM | 11.1 ± 1.84 µM | 3.75 ± 0.78 µM | ≥ 100 µM | 0.20 L/P | 0.20 L/P | 108 L/P | 657 L/P |  | 49.4 ± 13.3 µM | 97 L/P | 626 L/P |  |  |  |  |  |  |  |  |
| CC[C@@H](C(=O)[C@@H](C)[C@@H](O)[C@H](C)[C@@H]1O[C@@H]([C@@H](CC)C(=O)O)CC[C@@H]1C)[C@H]1O[C@]2(C=C[C@@H](O)[C@]3(CC[C@@](C)([C@H]4CC[C@](O)(CC)[C@H](C)O4)O3)O2)[C@H](C)C[C@@H]1C [Salinomycin, salinomycin, reference compound] |  |  |  |  |  |  |  |  |  |  |  |  |  | 63 fold | 22 ± 5 µM | 0.92 ± 0.28 µM | 0.37 ± 0.0005 µM | 0.41 ± 0.1 µM | 0.37 ± 0.08 µM | 9.76 ± 2.28 µM |

Source: patent US20250326794A1, “ANTI-CANCER LEUCINE-RICH PEPTIDES AND USES THEREOF” (KING'S COLLEGE LONDON, priority 2019, published 2025)
